Data published in PubChem BioAssay AID330 (DTP/NCI, 2004).
Several values for one entry are separate records, joined by “and”; a condition that tells them apart may be missing. Equal entries are not always repeated. Toxic doses and inconclusive results are not listed.

Test system: P388 leukemia ip, CD2F1 mice, survival T/C
Experiment: NCI In Vivo Anticancer Drug Screen. Data for tumor model P388 Leukemia (intraperitoneal) in CD2F1 (CDF1) mice
Settings: endpoint: median survival time, higher = longer survival
Summary of the method: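 Mice carrying the transplanted tumor received test compound or vehicle. Survival was recorded in each group, and the value is the treated-group measurement divided by that of the vehicle-treated control group.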

[1] = dose: 25.0 mg/kg/injection, schedule: Q01DX009 (ip), vehicle: saline
[2] = dose: 50.0 mg/kg/injection, schedule: Q01DX009 (ip), vehicle: saline with Tween-80
[3] = dose: 50.0 mg/kg/injection, schedule: Q01DX009 (ip), vehicle: saline
[4] = dose: 100.0 mg/kg/injection, schedule: Q01DX009 (ip), vehicle: saline with Tween-80
[5] = dose: 100.0 mg/kg/injection, schedule: Q01DX009 (ip), vehicle: saline
[6] = dose: 60.0 mg/kg/injection, schedule: Q01DX005 (ip), vehicle: Klucel (hydroxypropylcellulose) (HPC)
[7] = dose: 120.0 mg/kg/injection, schedule: Q01DX005 (ip), vehicle: Klucel (hydroxypropylcellulose) (HPC)
[8] = dose: 12.5 mg/kg/injection, schedule: Q01DX005 (ip), vehicle: Klucel (hydroxypropylcellulose) (HPC)
[9] = dose: 25.0 mg/kg/injection, schedule: Q01DX005 (ip), vehicle: Klucel (hydroxypropylcellulose) (HPC)
[10] = dose: 50.0 mg/kg/injection, schedule: Q01DX005 (ip), vehicle: Klucel (hydroxypropylcellulose) (HPC)
[11] = dose: 100.0 mg/kg/injection, schedule: Q01DX005 (ip), vehicle: Klucel (hydroxypropylcellulose) (HPC)
[12] = dose: 200.0 mg/kg/injection, schedule: Q01DX005 (ip), vehicle: Klucel (hydroxypropylcellulose) (HPC)
[13] = dose: 50.0 mg/kg/injection, schedule: Q01DX009 (ip), vehicle: Klucel (hydroxypropylcellulose) (HPC)
[14] = dose: 100.0 mg/kg/injection, schedule: Q04DX003 (ip), vehicle: saline with Tween-80
[15] = dose: 240.0 mg/kg/injection, schedule: Q01DX005 (ip), vehicle: Klucel (hydroxypropylcellulose) (HPC)
[16] = dose: 50.0 mg/kg/injection, schedule: Q01DX005 (ip), vehicle: saline with Tween-80

## CC1CN1P1(N2CC2C)=NP(N2CC2C)(N2CC2C)=NP(N2CC2C)(N2CC2C)=N1 (stereo unspecified)
dose: 12.5 mg/kg/injection, schedule: Q04DX003 (ip), vehicle: saline
  T/C: 100 % of control
[1]
  T/C: 154 % of control
dose: 25.0 mg/kg/injection, schedule: Q04DX003 (ip), vehicle: saline
  T/C: 112 % of control
dose: 33.0 mg/kg/injection, schedule: Q01DX009 (ip), vehicle: saline with Tween-80
  T/C: 154 % of control
[2]
  T/C: 170 % of control and 193 % of control
[3]
  T/C: 172 % of control
dose: 66.0 mg/kg/injection, schedule: Q04DX003 (ip), vehicle: saline
  T/C: 154 % of control
dose: 75.0 mg/kg/injection, schedule: Q01DX009 (ip), vehicle: saline with Tween-80
  T/C: 218 % of control
[4]
  T/C: 102 % of control
[5]
  T/C: 90 % of control
dose: 100.0 mg/kg/injection, schedule: Q04DX003 (ip), vehicle: saline
  T/C: 181 % of control

## Cc1cc(Cl)c2cc3c(cc2n1)CCCC3
[6]
  T/C: 102 % of control
[7]
  T/C: 109 % of control

## COc1cccc2c1C(=O)c1c(O)c3c(c(O)c1C2=O)C[C@@](O)(C(=O)CSC(=O)c1ccccc1)C[C@@H]3OC1CC(N)C(O)C(C)O1 (stereo partly specified)
dose: 25.0 mg/kg/injection, schedule: Q01DX001 (ip), vehicle: water
  T/C: 123 % of control
dose: 50.0 mg/kg/injection, schedule: Q01DX001 (ip), vehicle: water
  T/C: 109 % of control

## COc1cc(/C=C/c2ccc(OC)c(O)c2)cc(OC)c1
dose: 6.25 mg/kg/injection, schedule: Q01DX005 (ip), vehicle: Klucel (hydroxypropylcellulose) (HPC)
  T/C: 108 % of control
[8]
  T/C: 103 % of control
[9]
  T/C: 99 % of control
[10]
  T/C: 119 % of control and 94 % of control
[11]
  T/C: 98 % of control
[12]
  T/C: 94 % of control

## CC(=O)N1C(CO)C(O)C(O)C1n1cnc2c(N)ncnc21 (stereo unspecified)
[10]
  T/C: 95 % of control
[11]
  T/C: 100 % of control
[12]
  T/C: 100 % of control
dose: 300.0 mg/kg/injection, schedule: Q01DX005 (ip), vehicle: Klucel (hydroxypropylcellulose) (HPC)
  T/C: 100 % of control

## O=C(NC1CCCCC1(O)c1ccc([N+](=O)[O-])cc1)C(Cl)Cl (stereo unspecified)
dose: 100.0 mg/kg/injection, schedule: Q04DX002 (ip), vehicle: Klucel (hydroxypropylcellulose) (HPC)
  T/C: 100 % of control
dose: 200.0 mg/kg/injection, schedule: Q04DX002 (ip), vehicle: Klucel (hydroxypropylcellulose) (HPC)
  T/C: 100 % of control

## Cc1cc2c(c(O)c1O)/C(=C/N=NC(N)=S)C(Cl)=N2
dose: 100.0 mg/kg/injection, schedule: Q01DX001 (ip), vehicle: Klucel (hydroxypropylcellulose) (HPC)
  T/C: 101 % of control
dose: 200.0 mg/kg/injection, schedule: Q01DX001 (ip), vehicle: Klucel (hydroxypropylcellulose) (HPC)
  T/C: 102 % of control
dose: 400.0 mg/kg/injection, schedule: Q01DX001 (ip), vehicle: Klucel (hydroxypropylcellulose) (HPC)
  T/C: 100 % of control

## COc1ccc2c(c1OC)C(O)N1CCc3cc4c(cc3C1=C2C(=O)c1ccccc1)OCO4 (stereo unspecified)
[8]
  T/C: 100 % of control and 106 % of control
[9]
  T/C: 100 % of control and 94 % of control
[10]
  T/C: 103 % of control (2×) and 123 % of control
[11]
  T/C: 111 % of control

## O=c1c2ccccc2sc2c([N+](=O)[O-])ccc(NCCCC3CCCN4CCCCC34)c12 (stereo unspecified)
dose: 31.9 mg/kg/injection, schedule: Q01DX005 (ip), vehicle: saline with Tween-80
  T/C: 100 % of control
dose: 63.8 mg/kg/injection, schedule: Q01DX005 (ip), vehicle: saline with Tween-80
  T/C: 102 % of control
dose: 127.5 mg/kg/injection, schedule: Q01DX005 (ip), vehicle: saline with Tween-80
  T/C: 110 % of control

## CCCCCCCCCCCCCCCCCC[N+]1([O-])CCOCC1
[3]
  T/C: 98 % of control
[5]
  T/C: 96 % of control

## CCN(CC)CCC(=O)c1ccccc1
dose: 12.5 mg/kg/injection, schedule: Q01DX009 (ip), vehicle: saline with Tween-80
  T/C: 102 % of control and 89 % of control
dose: 25.0 mg/kg/injection, schedule: Q01DX009 (ip), vehicle: saline with Tween-80
  T/C: 108 % of control
[1]
  T/C: 97 % of control
[2]
  T/C: 109 % of control and 91 % of control
[3]
  T/C: 96 % of control
[4]
  T/C: 123 % of control

## Cc1ccc(C23c4ccccc4CCN2C(=O)C3N)cc1 (stereo unspecified)
[10]
  T/C: 99 % of control
[11]
  T/C: 106 % of control
[12]
  T/C: 93 % of control

## O=C(O)CCSCCCCCCCCCCSCCC(=O)O
[10]
  T/C: 98 % of control
[11]
  T/C: 93 % of control
[12]
  T/C: 86 % of control

## CCCCN(CCCC)C(Cl)=NCCC
[13]
  T/C: 94 % of control
dose: 100.0 mg/kg/injection, schedule: Q01DX009 (ip), vehicle: Klucel (hydroxypropylcellulose) (HPC)
  T/C: 93 % of control

## CC(=O)OCC(=O)[C@@]1(O)CC[C@H]2[C@@H]3CCC4=CC(=O)C=C[C@]4(C)[C@H]3C(=O)C[C@@]21C
dose: 25.0 mg/kg/injection, schedule: Q04DX003 (ip), vehicle: saline with Tween-80
  T/C: 95 % of control
dose: 50.0 mg/kg/injection, schedule: Q04DX003 (ip), vehicle: saline with Tween-80
  T/C: 104 % of control
[14]
  T/C: 95 % of control

## Nc1nc(=O)n(CCCSc2ccc([N+](=O)[O-])cc2)cc1-c1ccc(Cl)c(Cl)c1
[6]
  T/C: 87 % of control
[7]
  T/C: 97 % of control
[15]
  T/C: 88 % of control

## CCOC(=O)C(Cc1ccc(N(CCCl)CCCl)cc1)NC(=O)C(CC(C)C)NC(C)=O (stereo unspecified)
dose: 3.12 mg/kg/injection, schedule: Q01DX009 (ip), vehicle: Klucel (hydroxypropylcellulose) (HPC)
  T/C: 162 % of control
dose: 5.0 mg/kg/injection, schedule: Q04DX003 (ip), vehicle: water
  T/C: 105 % of control
dose: 6.25 mg/kg/injection, schedule: Q01DX009 (ip), vehicle: Klucel (hydroxypropylcellulose) (HPC)
  T/C: 172 % of control
dose: 10.0 mg/kg/injection, schedule: Q04DX003 (ip), vehicle: water
  T/C: 107 % of control
dose: 12.5 mg/kg/injection, schedule: Q01DX009 (ip), vehicle: Klucel (hydroxypropylcellulose) (HPC)
  T/C: 241 % of control and 254 % of control
dose: 20.0 mg/kg/injection, schedule: Q04DX003 (ip), vehicle: water
  T/C: 108 % of control
dose: 25.0 mg/kg/injection, schedule: Q01DX009 (ip), vehicle: Klucel (hydroxypropylcellulose) (HPC)
  T/C: 119 % of control
dose: 40.0 mg/kg/injection, schedule: Q04DX003 (ip), vehicle: other
  T/C: 122 % of control
dose: 40.0 mg/kg/injection, schedule: Q04DX003 (ip), vehicle: water
  T/C: 109 % of control
[13]
  T/C: 104 % of control and 97 % of control
dose: 80.0 mg/kg/injection, schedule: Q04DX003 (ip), vehicle: other
  T/C: 116 % of control

## CN(C)c1nc(=O)c2cc(Br)ccc2o1
[6]
  T/C: 96 % of control
[7]
  T/C: 100 % of control

## CCc1ncc(C(O)c2ccc(Cl)cc2)n1Cc1ccccc1 (stereo unspecified)
[6]
  T/C: 93 % of control
[7]
  T/C: 93 % of control
[15]
  T/C: 90 % of control

## Clc1c2c(c(Cl)c3c1=Nc1ccc4ccccc4c1S3)=Nc1ccc3ccccc3c1S2
[14]
  T/C: 107 % of control
dose: 200.0 mg/kg/injection, schedule: Q04DX003 (ip), vehicle: saline with Tween-80
  T/C: 113 % of control
dose: 400.0 mg/kg/injection, schedule: Q04DX003 (ip), vehicle: saline with Tween-80
  T/C: 115 % of control

## NS(=O)(=O)c1cc(S(=O)(=O)Cl)ccc1Cl
dose: 12.5 mg/kg/injection, schedule: Q01DX005 (ip), vehicle: saline with Tween-80
  T/C: 100 % of control
dose: 25.0 mg/kg/injection, schedule: Q01DX005 (ip), vehicle: saline with Tween-80
  T/C: 100 % of control
[16]
  T/C: 99 % of control and 94 % of control

## CC(C)CC(NC(=O)OC(C)(C)C)C(=O)ON1C(=O)CCC1=O (stereo unspecified)
[16]
  T/C: 111 % of control
dose: 100.0 mg/kg/injection, schedule: Q01DX005 (ip), vehicle: saline with Tween-80
  T/C: 111 % of control

## CCOC(=O)C1(c2cc(NS(=O)(=O)c3ccccc3)ccc2O)CCCCC1=O (stereo unspecified)
dose: 12.5 mg/kg/injection, schedule: Q01DX001 (ip), vehicle: saline with Tween-80
  T/C: 104 % of control
dose: 25.0 mg/kg/injection, schedule: Q01DX001 (ip), vehicle: saline with Tween-80
  T/C: 104 % of control
dose: 50.0 mg/kg/injection, schedule: Q01DX001 (ip), vehicle: saline with Tween-80
  T/C: 100 % of control
